Source: paper PMC6272327, “Discovery of Metal Ions Chelator Quercetin Derivatives with Potent Anti-HCV Activities” (Molecules, 2015)
Where two headings read alike, the source gives them in different places.

Experiments:
[1] = Cell viability / cytotoxicity by MTT method; format: cell-based; details: human
Description: (§1) The inhibition of HCV by all synthesized quercetin derivatives was evaluated following a previously reported procedure. All newly synthesized compounds were tested in authentic HCV infection/replication system in the human hepatoma cell lines Huh7.5.1 using mycophenolic acid (MPA) as control compound. The cytotoxicity effect of the test compounds was also evaluated in the same cell line by MTT method. Antiviral effect and cytotoxicity effect were summarized as EC50 and CC50 respectively, as well as the selective index (SI) which is the ratio of CC50 to EC50. The stability of quercetin-3-O-ester compounds were also tested in the same buffer as the antiviral activity assay at 37 °C and the hydrolysate was measured by HPLC.
After the EGFP signal was read, cell viability was measured in the same plate by the MTT [3-(4,5-dimethylthiazol-2-yl)-2,5-diphenyltetrazolium bromide; Sigma-Aldrich, St. Louis, MO, USA] method. Briefly, MTT (1 mg/mL) was dissolved in PBS. Cell culture supernatants were removed and replaced with MTT and further cultured for 4 h; cells were then lysed with 10% sodium dodecyl sulfate (SDS), 50% N,N-dimethylformamide, pH 7.2. OD570 values were read. The percentage of cell death was calculated against the control well without compounds.

[2] = test system: HCV infectious virus J399EM; assay: Anti-HCV assay in authentic HCV infection/replication system (J399EM EGFP reporter virus) in Huh7.5.1 cells; format: cell-based, hepatitis C virus (JFH1-derived, genotype 2a); details: for EC50: Hepatitis C virus, Huh-7.5.1, 72 h; for SI (selectivity index): ratio of CC50 to EC50, Huh7.5.1 cells
Description: as §1
The biological assays were performed following a previously reported procedure. The Huh7.5.1 cell line and the HCV infectious virus J399EM were kindly provided by Xin-Wen Chen, Wuhan Institute of Virology, Chinese Academy of Sciences. Huh7.5.1 cells were cultured in Dulbecco’s modified Eagle’s medium (DMEM) containing 10% (v/v) fetal bovine serum, 0.5 mg/mL G418, 100 IU/mL penicillin, and […].
J399EM is an infectious HCV virus derived from the JFH1 virus (genotype 2a) by insertion of enhanced green fluorescent protein (EGFP) into the HCV NS5A region. The establishment of the infectious J399EM HCV virus has been described previously. J399EM was propagated in Huh7.5.1 cells. Briefly, Huh7.5.1 cells were infected with J399EM at MOI = 0.1 and cultured for 4 days. Culture supernatant was collected and filtered through a 0.45 μm membrane and stored at −80 °C as virus stock. Virus titer was tested in Huh7.5.1 cells. Stocks were serially diluted, and the foci forming units (FFU) were determined as the number of fluorescent colonies formed in infected Huh7.5.1.
All the compounds were first dissolved in DMSO at 50 mM, and then diluted to various concentrations (50 μM, 25 μM, 12.5 μM, 6.3 μM and 3.1 μM). Approximately 1 × 10^4 Huh7.5.1 cells per well were plated in an opaque 96-well tissue culture plate (Costar 3904). The next day, the medium was replaced by J399EM virus at an MOI of 0.3. Four hours later, the virus inoculum was removed and medium containing different concentrations of compounds was added. After an additional 72 h of incubation, the culture medium was removed and the EGFP autofluorescence was measured by using a […] with excitation at 488 nm and emission at 516 nm. Compounds and controls were performed in duplicate and each experiment repeated independently at least twice.

SMILES | CC50 [1] | EC50 [2] | SI (selectivity index) [2] | melting point | CC50 ([1]; Huh7.5.1 cells, MTT, concentration required to reduce cell proliferation by 50%, average of duplicate determinations, read-out: CC50)
N#Cc1cccc(C(=O)Oc2c(-c3ccc(O)c(O)c3)oc3cc(O)cc(O)c3c2=O)c1 [Compound 4i, 2-(3,4-Dihydroxyphenyl)-5,7-dihydroxy-4-oxo-4H-chromen-3-yl 3-cyanobenzoate] | > 50 µM | 13.1 ± 1 µM | >3.8 | 142 to 143 °C | –
O=c1c(O)c(-c2ccc(O)c(O)c2)oc2cc(OCc3ccccc3F)cc(O)c12 [Compound 3b, 2-(3,4-Dihydroxyphenyl)-7-((2-fluorobenzyl)oxy)-3,5-dihydroxy-4H-chromen-4-one] | 15.4 ± 0.1 µM | 5 ± 0.1 µM | 3.1 | 254 to 255 °C | –
Cc1cccc(COc2cc(O)c3c(=O)c(O)c(-c4ccc(O)c(O)c4)oc3c2)c1 [Compound 3k, 2-(3,4-Dihydroxyphenyl)-3,5-dihydroxy-7-((3-methylbenzyl)oxy)-4H-chromen-4-one] | 32.5 ± 0.7 µM | 4.7 ± 0.4 µM | 6.9 | 224 to 226 °C | –
Cc1ccc(COc2cc(O)c3c(=O)c(O)c(-c4ccc(O)c(O)c4)oc3c2)cc1 [Compound 3q, 2-(3,4-Dihydroxyphenyl)-3,5-dihydroxy-7-((4-methylbenzyl)oxy)-4H-chromen-4-one] | 15.9 ± 1 µM | 6.7 ± 1.4 µM | 2.4 | 261 to 264 °C | –
O=c1c(O)c(-c2ccc(O)c(O)c2)oc2cc(OCc3ccccc3)cc(O)c12 [Compound 3a, 7-(Benzyloxy)-2-(3,4-dihydroxyphenyl)-3,5-dihydroxy-4H-chromen-4-one] | > 50 µM | 8.7 ± 0.2 µM | >5.8 | 255 to 257 °C | –
O=C(Oc1c(-c2ccc(O)c(O)c2)oc2cc(O)cc(O)c2c1=O)c1ccc(F)cc1 [Compound 4k, 2-(3,4-Dihydroxyphenyl)-5,7-dihydroxy-4-oxo-4H-chromen-3-yl 4-fluorobenzoate] | 35 ± 2.4 µM | 9.7 ± 3.1 µM | 3.6 | 203 to 205 °C | –
O=c1c(O)c(-c2ccc(O)c(O)c2)oc2cc(OCc3ccccc3[N+](=O)[O-])cc(O)c12 [Compound 3g, 2-(3,4-Dihydroxyphenyl)-3,5-dihydroxy-7-((2-nitrobenzyl)oxy)-4H-chromen-4-one] | 14.6 ± 0.5 µM | 7 ± 1.1 µM | 2.1 | 260 to 261 °C | –
O=C(Oc1c(-c2ccc(O)c(O)c2)oc2cc(O)cc(O)c2c1=O)c1cccc(Cl)c1 [Compound 4j, 2-(3,4-Dihydroxyphenyl)-5,7-dihydroxy-4-oxo-4H-chromen-3-yl 3-chlorobenzoate] | > 50 µM | 23 ± 3.2 µM | – | > 300 °C | –
Nc1ccccc1C(=O)Oc1c(-c2ccc(O)c(O)c2)oc2cc(O)cc(O)c2c1=O [Compound 4c, 2-(3,4-Dihydroxyphenyl)-5,7-dihydroxy-4-oxo-4H-chromen-3-yl 2-aminobenzoate] | – | 12.8 ± 2.8 µM | >3.9 | 198 to 199 °C | > 50 µM
N#Cc1ccc(C(=O)Oc2c(-c3ccc(O)c(O)c3)oc3cc(O)cc(O)c3c2=O)cc1 [Compound 4n, 2-(3,4-Dihydroxyphenyl)-5,7-dihydroxy-4-oxo-4H-chromen-3-yl 4-cyanobenzoate] | > 50 µM | 11.4 ± 2.3 µM | >4.4 | 196 to 197 °C | –
N#Cc1ccccc1COc1cc(O)c2c(=O)c(O)c(-c3ccc(O)c(O)c3)oc2c1 [Compound 3f, 2-(((2-(3,4-Dihydroxyphenyl)-3,5-dihydroxy-4-oxo-4H-chromen-7-yl)oxy)methyl)benzonitrile] | 12.6 ± 0.1 µM | 7.5 ± 0.5 µM | 1.7 | 248 to 249 °C | –
COc1ccccc1C(=O)Oc1c(-c2ccc(O)c(O)c2)oc2cc(O)cc(O)c2c1=O [Compound 4d, 2-(3,4-Dihydroxyphenyl)-5,7-dihydroxy-4-oxo-4H-chromen-3-yl 2-methoxybenzoate] | > 50 µM | 11.7 ± 1.3 µM | >4.3 | 183 to 184 °C | –
